Test results reported in patent US20090069441A1, “Motuporamine Mimic Agents” (priority 2006, published 2009).
Read-outs that look alike come from different tables or passages of the source.

Tests used:
L1210 cells [1] = assay: Cytotoxicity (cell growth, MTT) in L1210 cells; format: cell-based, mouse; settings: Mus musculus; L1210 experiments, no added SPD; read-out: L1210 IC50
Description: In terms of Table 1, L1210 cells are mouse leukemia cells and are the gold standard in terms of evaluating polyamine cytotoxicity data due to a plethora of prior data in this cell line for other polyamine structures. Clearly 7a was similar in all respects to 4a (Table 1). […] The lower the Ki value, the higher the affinity of the drug for the polyamine transporter (PAT) on the cell surface. Chinese hamster ovary (CHO) cells and a mutant line without an active PAT (CHO-MG) also evaluated the PAT selectivity of these drugs.
Biological Evaluation. Once synthesized, the conjugates were screened for cytotoxicity in L1210, CHO and CHO-MG cells. L1210 (mouse leukemia) cells were selected to enable comparisons with the published IC50 and Ki values for a variety of polyamine substrates. Chinese Hamster Ovary (CHO) cells were chosen along with a mutant PAT deficient cell line (CHO-MG) in order to comment on selective transport via the PAT (Wang et al, J. Med. Chem. 2003, 46, 2663-2671; Wang et al, J. Med. Chem. 2003, 46, 2672-2682; Wang et al., J. Med. Chem. 2003, 46, 5129-5138; Delcros et al., J. Med. Chem., 2002, 45, 5098-5111).
L1210 IC50 and Ki studies. […] The Ki values in Table 3 were determined for [^14C]spermidine uptake and reflect the affinity of the polyamine derivative for the polyamine transporter on the cell surface. With both parameters, one can determine whether high affinity for the transporter (e.g., low Ki value) translated into high cytotoxicity (e.g., low IC50 value), etc.
Biological studies. Murine leukemia cells (L1210), CHO and CHO-MG cells were grown in RPMI medium supplemented with 10% fetal calf serum, glutamine (2 mM), penicillin (100 U/mL), streptomycin (50 μg/mL). L-Proline (2 μg/mL) was added to the culture medium for CHO-MG cells. Cells were grown at 37° C. under a humidified 5% CO2 atmosphere. Aminoguanidine (AG, 2 mM) was added to the culture medium to prevent oxidation of the drugs by the enzyme (bovine serum amine oxidase) present in calf serum. Trypan blue staining was used to determine cell viability before the initiation of a cytotoxicity experiment. Cells in early to mid log-phase were used. IC50 determinations. Cell growth was assayed in sterile 96-well microtiter plates (Becton-Dickinson, Oxnard, Calif., USA). L1210 cells were seeded at 5e^4 cells/mL of medium (100 μL/well). CHO and CHO-MG cells were plated at 2e^3 cells/mL. Drug solutions (10 μL per well) of appropriate concentration were added at the time of seeding for L1210 cells and after an overnight incubation for the CHO cell lines. After exposure to the drug for 48 hr, cell growth was determined by measuring formazan formation from 3-(4,5-dimethylthiazol-2-yl)2,5-diphenyltetrazolium using a Titertek Multiskan MCC/340 microplate reader for absorbance (540 nm) measurements (Mosmann, T., J. Immunol. Methods 1983, 65, 55-63).

CHO cells = settings: data originally reported in Ref, cited from earlier work; for IC50: 48 h incubation
[2] = tested on: Drosophila imaginal leg discs; assay: Imaginal disc eversion assay; format: cell-based, Drosophila melanogaster; settings: Drosophila melanogaster, 15 hr incubation in Robb's medium
Description: DihydroMotuporamine C, 4a, was used to develop an imaginal disc assay in Drosophila flies. The imaginal leg discs were collected by microscopic dissection from maggots. […] Inhibition was measured as failure of the disc to fully develop into a fly leg after 15 hr of incubation in Robb's growth medium. This presumably occurs by overactivation of Rho, an important signaling pathway in development. Hyper-stimulation of this pathway is sufficient to block development of the fly leg.
Fly Stocks: 20 female and 5 male wild type Oregon variant of Drosophila melanogaster interbred in blue food medium for 24 hours then flies are removed. Third instar wall-crawling larvae collected then dissected on the sixth day. Flies kept in 25° C. incubation chamber.
Blue Food Preparation: Standard corn meal medium heated then mixed completely with aqueous 1% Bromophenol Blue. The food medium is cooled for one day or more before use.
Dissection Medium: Ringer's Buffer with 10 uL 0.1% BSA. Ringer's Medium consists of 130 mM NaCl, 5 mM KCl, 1.5 mM CaCl2-2H2O, Stored at room temperature (23° C.), BSA added before dissection.
Cultivation Medium: Minimal Robb's Medium with 10 uL 0.1% BSA. Minimal Robb's Medium consists of 40 mM KCl, 0.4 mM KH2PO4, 40 mM NaCl, 0.4 mM NaH2PO4.7H2O, 1.2 mM MgSO4.7H2O, 1.2 mM MgCl2-6H2O, 1 mM CaCl2-2H2O, 10 mM Glucose, 0.2 mM L-asparagine, 4.0 mM L-glutamine, 0.16 mM Glycine, 0.64 mM L-leucine, 0.32 mM L-proline, 0.16 mM R-Serine, 0.64 mM L-valine. Stored at −25° C. One day before dissection, aliquot defrosted in 4° C. Add BSA then warmed to room temperature (23° C.) before dissection.
0.1% BSA: 0.1 g BSA fraction V (Sigma#A-9647) in 10 mL distilled H2O, Stored at 4° C.
Developmental Hormone: 1 mg 20-hydroxyecdysone (Sigma #H-5142) in 1 mL 100% Ethanol. Stored at −25° C. Before use, stock is diluted 10× (1 mL added to 9 mL of 100% Ethanol). 10 μL of diluted 20-hydroxyecdysone is added to culture.
Dissection Procedures: Third instar larvae are removed from cultivation bottle with a wetted brush and washed in dH2O to remove food medium clinging to larvae. The cleaned larvae are dissected in Ringer's Medium using forceps. The imaginal discs are washed in fresh Ringer's Medium, and then cultivated with 1 mL of Robb's Medium in 12-well culture plate. Each culture well should have 30˜40 imaginal discs.
Culturing Procedures: In a larger container, place the 12-well culture plate on a moist towel, then seal the large container. Cultivate at 25° C. for 15 hours. Evaluation: Three categories will be used to grade the eversion of each imaginal disc. Full Eversion—the leg is fully extended from the disc. Partial Eversion—the leg is protruding from the epithelial. No Eversion—no sign of any protrusion.

[3] = target: polyamine transporter (PAT); settings: data originally reported in Ref; read-out: L1210 Ki value; cited from earlier work
CHO-MG cells = settings: 48 h incubation; data originally reported in Ref; cited from earlier work
L1210 cells [4] = settings: 48 h incubation; data originally reported in Ref; cited from earlier work

CCN(CCCCNCCCCN)Cc1c2ccccc2cc2ccccc12 [Compound 7b, N-(4-Amino-butyl)-N′-anthracen-9-ylmethyl-N′-ethyl-butane-1,4-diamine]
IC50 (L1210 cells [1]): 22.2 µM
IC50 (CHO cells): 22.2 µM
IC50 Ratio (CHO-MG/CHO), a measure of PAT selectivity (CHO cells): 1
inhibition at 18 µM [2]: 8%
Ki [3]: 24.4 µM
IC50 (CHO-MG cells): 21.9 µM

NCCCNCCCN1CCCCCCCCCCCCCC1 [Compound 4a, Dihydromotuporamine C, reference compound]
IC50 (L1210 cells [4]): 3 µM
IC50 (CHO cells): 10.5 µM
IC50 Ratio (CHO-MG/CHO), a measure of PAT selectivity (CHO cells): 1
Ki [3]: 9.9 µM
IC50 (CHO-MG cells): 10 µM

NCCCNCCCNCc1c2ccccc2cc2ccccc12 [Compound 6a]
IC50 (L1210 cells [4]): 1.8 µM
IC50 (CHO cells): 1.9 µM
IC50 Ratio (CHO-MG/CHO), a measure of PAT selectivity (CHO cells): 1.8
inhibition at 18 µM [2]: 60%
Ki [3]: 33.4 µM
IC50 (CHO-MG cells): 3.4 µM
